Results published in PMC10837133, “Molecular basis of Spns2-facilitated sphingosine-1-phosphate transport” (Cell Research, 2023).

Tests used:
[1] = molecular target: T1, Spns2 (Spinster homolog 2) (Homo sapiens, UniProt Q8IVW8); assay: cryo-EM structure ([…] Å); affinity selection mass spectrometry; cell-based S1P efflux assay; format: binding
T1 construct: Spns2fusion: PGS (Pyrococcus abyssi glycogen synthase) fused between F222 and T223 on intracellular loop 2
T1 sequence (Q8IVW8 1-222 limits assumed): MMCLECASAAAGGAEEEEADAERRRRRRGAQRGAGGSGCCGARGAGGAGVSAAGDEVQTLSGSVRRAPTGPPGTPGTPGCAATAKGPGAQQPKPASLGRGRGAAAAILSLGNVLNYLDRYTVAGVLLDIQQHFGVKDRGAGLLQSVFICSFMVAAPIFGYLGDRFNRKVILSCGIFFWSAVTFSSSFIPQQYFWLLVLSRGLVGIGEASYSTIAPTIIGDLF
T1 sequence (Q8IVW8 223-549 limits assumed): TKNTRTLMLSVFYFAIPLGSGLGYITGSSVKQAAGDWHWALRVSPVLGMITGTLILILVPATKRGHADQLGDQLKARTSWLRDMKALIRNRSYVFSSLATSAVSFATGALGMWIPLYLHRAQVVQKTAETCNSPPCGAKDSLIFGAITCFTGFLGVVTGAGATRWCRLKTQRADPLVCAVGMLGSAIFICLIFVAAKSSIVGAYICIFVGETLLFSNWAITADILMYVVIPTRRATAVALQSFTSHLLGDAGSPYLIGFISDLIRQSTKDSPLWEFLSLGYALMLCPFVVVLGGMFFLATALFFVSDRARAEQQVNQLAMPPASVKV

[2] = molecular target: T2, Spns2 (Spinster homolog 2) (Homo sapiens, UniProt Q8IVW8); assay: cell-based FTY720-P transport assay, WT vs mutants
T2 sequence (Q8IVW8 1-549): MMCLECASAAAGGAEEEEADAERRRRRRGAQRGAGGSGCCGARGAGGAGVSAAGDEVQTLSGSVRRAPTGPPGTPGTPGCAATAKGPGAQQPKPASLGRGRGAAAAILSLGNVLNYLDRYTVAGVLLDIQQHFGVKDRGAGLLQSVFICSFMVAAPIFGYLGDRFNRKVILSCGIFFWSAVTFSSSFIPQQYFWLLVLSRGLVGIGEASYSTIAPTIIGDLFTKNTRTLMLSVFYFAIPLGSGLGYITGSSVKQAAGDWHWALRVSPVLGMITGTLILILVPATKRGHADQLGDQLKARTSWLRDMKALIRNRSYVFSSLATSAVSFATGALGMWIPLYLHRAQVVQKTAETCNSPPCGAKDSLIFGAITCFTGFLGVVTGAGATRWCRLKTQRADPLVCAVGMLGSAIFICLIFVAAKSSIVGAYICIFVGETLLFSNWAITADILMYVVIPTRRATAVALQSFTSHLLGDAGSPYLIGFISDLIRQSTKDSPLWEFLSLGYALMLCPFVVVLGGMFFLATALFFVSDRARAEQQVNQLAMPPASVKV

SMILES	cryo-EM structure (3.60 Å); affinity selection mass spectrometry; cell-based S1P [1]	cell-based FTY720-P transport assay, WT vs mutants [2]
CCCCCCCCCCCCC/C=C/[C@@H](O)[C@@H](N)COP(=O)(O)O [S1P, sphingosine-1-phosphate]	The affinity selection mass spectrometry results confirmed that endogenous S1P bound to Spns2fusion	
CCCCCCCCc1ccc(CC[C@](N)(CO)COP(=O)(O)O)cc1 [FTY720-P]		substitutions also significantly decreased FTY720-P transport activity, which indicates a similar FTY720-P transport mechanism as S1P
